Article PMC8421406, “C9orf72-derived arginine-rich poly-dipeptides impede phase modifiers” (Nature Communications, 2021)
Where no end group is shown, it is not given here. HA = HA epitope tag

How the values were obtained:
[1] = test system: GFP:FUS-LC:NLS / mCh:FUS-LC hydrogel; experiment: Hydrogel binding assay, GFP:FUS-LC:NLS on mCh:FUS-LC hydrogel; format: biochemical; settings: Kapβ2 0.1-1.0 µM; PR20 with 1.0 µM Kapβ2
Protocol: The experiment was independently repeated three times with similar results. Here, 10 μm scale bars are shown in the image. e Graphical description of hydrogel binding assay. Hydrogels of mCh:LC-domain accumulate GFP:LC-domain as it co-polymerizes. f Hydrogel binding assay for FUS-LC in the absence and presence of Kapβ2. mCh:FUS-LC (lower images) were incubated with 1.0 µM of GFP (left panel) or 1.0 µM of GFP:FUS-LC:NLS (right panel) in the presence of different concentrations of Kapβ2 (left to right: 0.1, 0.3, and 1.0 µM). g Quantitative analysis of Fig. 1f. Relative intensity of GFP signals is shown as the mean of three independent experiments ± SD, analyzed by one-way ANOVA followed by Dunnett’s multiple comparison test (**P < 0.01, ***P < 0.001). h Hydrogel binding assay for FUS-LC in the absence and presence of Kapβ2 and/or PR20. Hydrogel droplets of mCh:FUS-LC (lower images) were incubated with 1.0 µM of GFP (left panel) or GFP:FUS-LC:NLS (right panel). GFP:FUS-LC:NLS containing Kapβ2 (1.0 µM) was challenged for homotypic polymer extension in the absence or presence of different concentration of PR20. i Quantitative analysis of Fig. 1h. Relative intensity of GFP signals is shown as the mean of three independent experiments ± SD, analyzed by one-way ANOVA followed by Dunnett’s multiple comparison test (**P < 0.01). Source data are provided as a Source Data file. […]

[2] = test system: MBP:FUS (full-length FUS droplets) / Kapβ2; experiment: Turbidity assay of FUS droplet formation (OD 395 nm); format: biochemical; settings: equimolar poly-dipeptide and Kapβ2 (8 μM)

Substance: PR20: twenty repeats of proline:arginine with an HA epitope tag at the C terminus, synthesized by SCRUM, Inc. (PRPRPRPRPRPRPRPRPRPRPRPRPRPRPRPRPRPRPRPR-{HA})
- Effect on hydrogel binding of GFP:FUS-LC:NLS [1]: inhibited the ability of Kapβ2 from blocking the hydrogel binding of GFP:FUS-LC:NLS
- Inhibition of the ability of Kapβ2 to melt FUS droplets (turbidity) [2]: inhibited the ability of Kapβ2
